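These data come from cells grown in 96-well plates and exposed to compound for 48 hours at five concentrations. At the GI50, growth is halved. Definition used: TGI = concentration required for complete inhibition of growth.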

Some test systems named below: CCRF-CEM leukemia; HCT-116 colon; HT29 colon; KM12 colon; LOX IMVI melanoma; M14 melanoma; OVCAR-5 ovarian; RXF 393 renal; SK-OV-3 ovarian; RPMI-8226 leukemia.
Holding throughout (experiment): growth of human tumour cells (NCI), 48 h

In the case of `Cc1nc(Nc2ccc([N+](=O)[O-])cc2)sc1C(/C=C/c1ccc(N(C)C)cc1)=N/NC(=O)c1ccccc1`, the TGI in the assay on CCRF-CEM leukemia, in the assay on HCT-116 colon, with HT29 colon, in the assay on KM12 colon, in the assay on LOX IMVI melanoma and in the assay with M14 melanoma was above 100 µM throughout. Also, the TGI in the assay with OVCAR-5 ovarian, with RXF 393 renal and with SK-OV-3 ovarian was above 100 µM in each case.
Turning to `Cc1cc(C)nc(SC2=C(Nc3cccc(Cl)c3C)C(=O)N(Cc3ccccc3)C2=O)n1`, the GI50 in the assay with CCRF-CEM leukemia, in the assay on HCT-116 colon, with HT29 colon, with KM12 colon, with LOX IMVI melanoma and with M14 melanoma was above 160 µM throughout. In addition, the GI50 with OVCAR-5 ovarian, in the assay on RPMI-8226 leukemia and with SK-OV-3 ovarian was above 160 µM each time. Further, the TGI in the assay with CCRF-CEM leukemia, in the assay with HCT-116 colon, in the assay on HT29 colon, with KM12 colon, in the assay with LOX IMVI melanoma and in the assay on M14 melanoma was above 160 µM in each case. Besides, the TGI with OVCAR-5 ovarian, in the assay on RPMI-8226 leukemia and with SK-OV-3 ovarian was above 160 µM throughout.
Consider `COc1cccc2[nH]c(-c3ccccn3)nc12`, for which the TGI in the assay on HCT-116 colon, in the assay on HT29 colon, in the assay on KM12 colon, with LOX IMVI melanoma, in the assay with M14 melanoma and in the assay on OVCAR-5 ovarian was above 100 µM in each case. Also, the TGI in the assay on RPMI-8226 leukemia, in the assay on RXF 393 renal and with SK-OV-3 ovarian was above 100 µM each time.
As for `c1ccc(COCC2OC3c4ccccc4COC3C2OCc2ccccc2)cc1` (configuration not stated), the TGI with HCT-116 colon, in the assay on HT29 colon, in the assay with KM12 colon, in the assay on M14 melanoma, in the assay with OVCAR-5 ovarian and with RPMI-8226 leukemia was above 100 µM each time. In addition, the TGI in the assay on RXF 393 renal and with SK-OV-3 ovarian was above 100 µM throughout.
For `CNC1C(O)C(OC2C(N)CC(N)C(OC3OC(C(C)O)C(O)C(O)C3N)C2O)OCC1(C)O` (configuration not stated), the TGI in the assay with CCRF-CEM leukemia, with HCT-116 colon, in the assay on HT29 colon, in the assay with KM12 colon, with LOX IMVI melanoma and in the assay on M14 melanoma was above 100 µM each time. In addition, the TGI in the assay with OVCAR-5 ovarian, in the assay with RPMI-8226 leukemia and in the assay on SK-OV-3 ovarian was above 100 µM throughout.
As for `CNCCCNc1nc2ccccc2c2c(=O)c3cc(Cl)ccc3sc12`, the GI50 in the assay on HT29 colon is 1.67 µM; in the assay with KM12 colon, 1.48 µM; with OVCAR-5 ovarian, 1.62 µM; in the assay with SK-OV-3 ovarian, 1.47 µM. In addition, the TGI turned out to be 3.13 µM with HT29 colon, 2.89 µM in the assay on KM12 colon, 3.03 µM with OVCAR-5 ovarian and 2.89 µM in the assay with SK-OV-3 ovarian.
Consider `CCCCCC/C=C\CCCCCCCCCC1=CC(=O)C=C(OC)C1=O`, for which the TGI amounted to 12.2 µM in the assay with HCT-116 colon; 11.8 µM with HT29 colon; 19.2 µM with KM12 colon; 13.9 µM in the assay with LOX IMVI melanoma; 16.2 µM in the assay on M14 melanoma; 17.8 µM in the assay on OVCAR-5 ovarian. Moreover, the TGI with RPMI-8226 leukemia was found to be 7.83 µM; in the assay on RXF 393 renal it was 13.1 µM; in the assay on SK-OV-3 ovarian, 16 µM.
For the compound `COc1cc(-c2cc(=O)c3cc(C)c(C)c(C(=O)O)c3o2)cc(OC)c1OC`, the TGI in the assay on CCRF-CEM leukemia, in the assay with HCT-116 colon, in the assay on HT29 colon, in the assay on KM12 colon, in the assay with LOX IMVI melanoma and in the assay with M14 melanoma was above 100 µM throughout. Besides, the TGI with OVCAR-5 ovarian, in the assay on RPMI-8226 leukemia and in the assay with SK-OV-3 ovarian was above 100 µM throughout.
As to `Cn1c2c(c3ccccc31)CCN(CCCCN1CCN(c3cccc(Cl)c3)CC1)C2=O`, the TGI is above 100 µM in the assay with CCRF-CEM leukemia; 19.4 µM with HCT-116 colon; 10.5 µM in the assay on HT29 colon; 10.7 µM in the assay on M14 melanoma; 16.9 µM in the assay with OVCAR-5 ovarian; 27.4 µM in the assay with RPMI-8226 leukemia. In the assay with SK-OV-3 ovarian, this compound had a TGI of 37.8 µM.
For the compound `CCCSC1=NC2C(N(CC)C(=O)N2CC)N1/N=C/C=C/c1ccccc1[N+](=O)[O-]` (configuration not stated), the GI50 was 2.93 µM in the assay on CCRF-CEM leukemia; 3.2 µM with HCT-116 colon; 3.16 µM in the assay with HT29 colon; 3.55 µM in the assay on KM12 colon; 3.08 µM with LOX IMVI melanoma; 2.83 µM in the assay with M14 melanoma. The GI50 in the assay on OVCAR-5 ovarian was 5.65 µM; in the assay with RXF 393 renal it was 1.8 µM; in the assay on SK-OV-3 ovarian, 6.07 µM. Moreover, the TGI with CCRF-CEM leukemia is above 100 µM; in the assay with HCT-116 colon it was above 100 µM; in the assay on HT29 colon, above 100 µM; with KM12 colon it was above 100 µM; with LOX IMVI melanoma, 20.7 µM; in the assay with M14 melanoma it was 20.8 µM. Also, the TGI in the assay on OVCAR-5 ovarian was above 100 µM; in the assay with RXF 393 renal it was 8.32 µM; with SK-OV-3 ovarian, above 100 µM.
Regarding `CC1=C(c2cc(C(=O)Nc3cccc(C(F)(F)F)c3)ncn2)Sc2ccccc2N1`, the TGI in the assay with CCRF-CEM leukemia, with HCT-116 colon, in the assay with HT29 colon, with KM12 colon, with M14 melanoma and in the assay on RPMI-8226 leukemia was above 100 µM each time. Also, the TGI in the assay with SK-OV-3 ovarian was above 100 µM.
For the compound `COc1ccc(CNc2nc3c(NC(C)=O)cc(C(F)(F)F)cc3nc2-c2ccccc2)cc1OC`, the TGI in the assay on CCRF-CEM leukemia, with HCT-116 colon, in the assay with HT29 colon, in the assay with KM12 colon, with LOX IMVI melanoma and in the assay with M14 melanoma was above 100 µM each time. The TGI in the assay with OVCAR-5 ovarian, with RPMI-8226 leukemia and with SK-OV-3 ovarian was above 100 µM in each case.
Consider `O=C(Oc1ccccc1Cl)c1ccccc1Nc1ccnc(C(F)(F)F)c1`, for which the GI50 is 0.0324 µM with CCRF-CEM leukemia; 1.78 µM in the assay with HCT-116 colon; 0.389 µM in the assay with HT29 colon; 0.299 µM with KM12 colon; 0.0261 µM with LOX IMVI melanoma; 0.252 µM with M14 melanoma. In addition, the GI50 with OVCAR-5 ovarian is 0.459 µM; in the assay with RPMI-8226 leukemia, 0.106 µM; in the assay on SK-OV-3 ovarian, 8.02 µM. The TGI in the assay with HCT-116 colon is 3.65 µM; in the assay with HT29 colon, above 100 µM; in the assay on KM12 colon, 1.36 µM; with LOX IMVI melanoma it was 0.0864 µM; in the assay with M14 melanoma it was 0.913 µM; with OVCAR-5 ovarian, 24.4 µM. In addition, the figures for the TGI in the assay with RPMI-8226 leukemia and in the assay on SK-OV-3 ovarian were 0.385 µM and 46.4 µM, respectively.

For the origin of these results see PubChem BioAssay (NCI).
